In one assay the target is T1, PPK-2 (Caenorhabditis elegans, UniProt Q9BL73).
T1 construct: pGEX6P, E. coli BL21(DE3), GST fusion or GST cleaved by PreScission
T1 sequence (Q9BL73 1-401): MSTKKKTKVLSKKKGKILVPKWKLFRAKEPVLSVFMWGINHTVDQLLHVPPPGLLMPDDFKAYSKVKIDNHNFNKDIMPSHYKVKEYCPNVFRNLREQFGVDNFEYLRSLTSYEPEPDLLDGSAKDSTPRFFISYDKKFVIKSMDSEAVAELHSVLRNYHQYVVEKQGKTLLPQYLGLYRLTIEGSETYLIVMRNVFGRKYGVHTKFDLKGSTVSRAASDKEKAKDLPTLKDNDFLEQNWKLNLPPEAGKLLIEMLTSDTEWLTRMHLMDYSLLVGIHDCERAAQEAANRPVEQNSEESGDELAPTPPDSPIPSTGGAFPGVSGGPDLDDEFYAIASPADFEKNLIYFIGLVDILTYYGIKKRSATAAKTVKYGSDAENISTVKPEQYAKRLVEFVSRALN
As to the kind of experiment: radiometric lipid kinase assay, TLC. To be noted: PtdIns5P co-substrate, 10 mM MgCl2, pH 7.4, 30 °C; labelled compound. The format is biochemical.

The target in a further assay is T2, dPIP4K (Drosophila melanogaster, UniProt A4V141).
T2 construct: gene PIP4K; pGEX6P, E. coli BL21(DE3), GST fusion or GST cleaved by PreScission
T2 sequence (A4V141 1-404): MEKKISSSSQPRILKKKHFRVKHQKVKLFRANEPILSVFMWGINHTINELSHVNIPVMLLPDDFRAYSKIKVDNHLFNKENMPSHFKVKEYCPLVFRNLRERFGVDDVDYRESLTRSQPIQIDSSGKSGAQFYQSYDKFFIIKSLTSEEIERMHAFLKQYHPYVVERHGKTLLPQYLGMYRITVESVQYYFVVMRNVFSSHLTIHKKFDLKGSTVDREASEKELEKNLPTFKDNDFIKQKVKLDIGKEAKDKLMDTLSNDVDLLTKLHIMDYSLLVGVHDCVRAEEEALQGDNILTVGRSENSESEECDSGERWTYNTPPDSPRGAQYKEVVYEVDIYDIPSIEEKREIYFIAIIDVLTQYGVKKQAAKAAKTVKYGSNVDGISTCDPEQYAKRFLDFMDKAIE
As to the kind of experiment: radiometric lipid kinase assay, TLC. It is filed as biochemical. The following applies: PtdIns5P co-substrate, 10 mM MgCl2, pH 7.4, 30 °C; labelled compound.

A further assay concerns the target T3, PI5P4Kγ (Homo sapiens, UniProt Q8TBX8, E153T/N195G/E196V/D197E, form not given).
T3 construct: gene PIP4K2C
To be noted: read-out: Km (μM ATP); PtdIns5P co-substrate, 10 mM MgCl2, pH 7.4, 30 °C, ATP 0–150 μM.

The target in the next assay is T4, PI5P4Kβ (Homo sapiens, UniProt P78356).
T4 construct: gene PIP4K2B; full-length cDNA in pGEX6P, E. coli BL21(DE3), GST fusion or GST cleaved by PreScission; mutant PI5P4Kβ+ His-tagged; homodimer
T4 sequence (P78356 1-416): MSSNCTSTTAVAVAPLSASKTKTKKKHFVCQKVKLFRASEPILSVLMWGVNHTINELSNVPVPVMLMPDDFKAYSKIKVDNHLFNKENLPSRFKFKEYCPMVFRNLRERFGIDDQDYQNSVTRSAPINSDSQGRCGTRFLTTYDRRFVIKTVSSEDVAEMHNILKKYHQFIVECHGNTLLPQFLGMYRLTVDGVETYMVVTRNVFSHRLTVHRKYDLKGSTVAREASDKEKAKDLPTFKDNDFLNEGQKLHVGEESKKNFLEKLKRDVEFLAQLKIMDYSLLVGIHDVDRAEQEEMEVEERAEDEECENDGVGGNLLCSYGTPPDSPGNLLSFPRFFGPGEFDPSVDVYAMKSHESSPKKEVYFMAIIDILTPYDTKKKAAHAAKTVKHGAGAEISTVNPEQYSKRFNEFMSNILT
Kind of assay: radiometric lipid kinase assay, TLC. The format is biochemical. To be noted: read-out: Km (μM ATP); PtdIns5P co-substrate, 10 mM MgCl2, pH 7.4, 30 °C, ATP 0–150 μM. An excerpt: radiometric lipid kinase assay, TLC on PI5P4Kβ

T3 sequence (Q8TBX8 2-421 E153T/N195G/E196V/D197E, form open): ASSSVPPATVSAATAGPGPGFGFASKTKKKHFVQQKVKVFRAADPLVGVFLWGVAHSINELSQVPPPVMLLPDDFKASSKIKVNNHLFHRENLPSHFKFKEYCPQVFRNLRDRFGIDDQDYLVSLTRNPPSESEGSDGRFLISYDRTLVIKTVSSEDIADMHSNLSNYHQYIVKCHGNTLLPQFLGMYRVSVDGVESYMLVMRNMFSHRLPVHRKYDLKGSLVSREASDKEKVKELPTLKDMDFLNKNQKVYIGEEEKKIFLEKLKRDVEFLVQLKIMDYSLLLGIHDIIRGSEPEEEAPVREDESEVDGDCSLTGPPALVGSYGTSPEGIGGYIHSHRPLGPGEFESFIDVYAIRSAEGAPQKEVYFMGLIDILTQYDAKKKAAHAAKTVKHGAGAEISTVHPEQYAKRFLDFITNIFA

Turning to `Nc1ncnc2c1ncn2[C@@H]1O[C@H](COP(=O)(O)OP(=O)(O)OP(=O)(O)O)[C@@H](O)[C@H]1O` [ATP], the “radiometric lipid kinase assay, TLC” value at PPK-2 was “PPK-2 from C. elegans had a similar specific activity to that of PI5P4Kγ”; on dPIP4K, “We assayed the PI5P4K activity of recombinant dPIP4K from D. melanogaster”. Also, the Km was found to be 3.96 µM on PI5P4Kγ and 7.58 µM at PI5P4Kβ.

The record behind these values is article PMC3749867, “Evolutionarily conserved structural changes in phosphatidylinositol 5-phosphate 4-kinase (PI5P4K) isoforms are responsible for differences in enzyme activity and localization” (Biochemical Journal, 2013).
